From PubChem BioAssay AID179 (DTP/NCI, 2004) come the findings set out here.

In the experiment the test system is CEM cells HIV-1 protection, formazan growth assay. The experiment is described as follows: NCI AIDS Antiviral Assay. To be noted: for IC50: measured here: growth of uninfected CEM cells. In a few lines:
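Protection of CEM cells against HIV-1 measured as cell growth via soluble formazan read-out, with five concentrations tested on both infected and uninfected cells; failure to protect may reflect toxicity.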

Where “and” joins values, the source holds several entries; their conditions need not be identical. Equal entries are not always repeated. Calls of active or inactive are those of the source.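 The calls were made as follows: active = compounds giving half or more protection of infected cells from virus-caused growth loss, again on retest; inactive = the rest.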 Where a SMILES comes first, the peptide text is derived from it. [ ]: non-standard residue; d: D form. The star is where a group is joined. hSer = N[CH](CCO)C(=O)O; Boc = CC(C)(C)OC(=O)* A value given as a limit tells only on which side of the number the result lay.

Consider `COC(=O)C(Cc1ccccc1)C(=O)NC(CNC(=O)OCc1ccccc1)C(=O)OCc1ccccc1` (configuration not stated), for which the EC50 (usually the concentration giving half of the maximal effect) was above 200 µM and the IC50 (as a rule, the concentration needed to halve the response being measured) turned out to be 29.5 µM.
Turning to `NC(CSSCC(N)=NCCCCCSC12CC3CC(CC(C3)C1)C2)=NCCCCCSC12CC3CC(CC(C3)C1)C2`, the EC50 was above 200 µM and the IC50 amounted to 6.17 µM.
For the compound `COC(=O)C1CCc2nnc(-c3ccccc3)n21` (configuration not stated), the EC50 was 955 µM and the IC50 was 1020 µM.
As for `O=P1(Cc2ccccc2)C(c2ccccc2)=C(O)C2CCCC21` (configuration not stated), the EC50 is above 112 µM and the IC50 was above 112 µM.
For the compound `Cc1ccc2nc(-c3ccc(N=NNc4ccc(-c5nc6ccc(C)c(S(=O)(=O)O)c6s5)cc4)cc3)sc2c1S(=O)(=O)O`, the EC50 was 174 µM and the half-inhibitory concentration (IC50) is above 200 µM.
With `O=C(/C=C\c1ccccc1)c1ccc(-c2cccc(-c3ccccc3)c2)cc1`, the EC50 is above 200 µM and the IC50 was determined as 110 µM.
For `Clc1ccc(-n2cccc2)cc1` the same measures were above 200 µM and above 200 µM.
On to `Nc1nc2c(nc(N)n2Cc2ccccc2)c(=O)[nH]1`, for which the EC50 is above 74.1 µM and the IC50 is above 74.1 µM.
Turning to `COc1ccc(N2C(=O)/C(=C\c3ccc(N(CCC#N)CCC#N)cc3)N=C2COc2ccccc2)cc1`, the EC50 is above 26.9 µM and the IC50 was above 26.9 µM.
In the case of `O=C(OCc1ccccc1)N1CC[C@@H](O)[C@@H](CNC23CC4CC(CC(C4)C2)C3)C1`, the EC50 is above 631 µM and the half-maximal inhibitory concentration (IC50) came out at 23.4 µM.
`O=C1C2C3C=C4c5ccccc5N(c5ccccc5)C4(C2C(=O)N1c1ccccc1)C1C(=O)N(c2ccccc2)C(=O)C31` (configuration not stated): the outcome was inactive.
For `Nc1nc(N)nc(NCCSSCCNc2nc(N)nc(N)n2)n1`, the EC50 was above 200 µM and the concentration for half-maximal inhibition (IC50) is 97.7 µM.
For `CN(C(=O)C12C3C4C1C1C2C3C41C(=O)C(C)(C)C)C(C)(C)C` (configuration not stated) the same measures were above 6.61 µM and above 6.61 µM.
`O=c1[nH]c2ccccc2nc1/C=C/n1c(=S)[nH]c2ccccc21`: the EC50 was above 200 µM and the IC50 was above 200 µM.
`O=[N+]([O-])c1ccc2c3c(cccc13)S(=O)(=O)O2`: the EC50 was above 200 µM and the IC50 was 85.1 µM.
On to `CCCCON1C[C@@H](O)C(O)[C@@H](O)C1` (some centres not stated), for which the EC50 is above 200 µM and the IC50 was above 200 µM.
On to `CC(=O)SCCC(NC(=S)Nc1ccccc1)P(=O)(Oc1ccccc1)Oc1ccccc1` (configuration not stated), for which the EC50 was above 200 µM and the half-inhibitory concentration (IC50) was 49 µM.
Take `Clc1cc2nc3[nH]c4ccccc4c3nc2cc1Cl`: the EC50 was above 83.2 µM and the IC50 was above 83.2 µM.
Consider `CC(C)C/C(CC(=O)CCC(=O)Nc1ccccc1[N+](=O)[O-])=N\NC(=O)c1cc2ccccc2cc1O`, for which the EC50 was above 70.8 µM and the IC50 was 11.7 µM.
For the compound `COCCC(NC(=O)C(CC(C)C)NC(=O)OC(C)(C)C)C(N)=O` (stereo not drawn) (Boc-Leu-[hSer](Me)-NH2; configuration not given here), the EC50 was above 200 µM and the IC50 is above 200 µM.
Turning to `CC1N(C)C(=O)OC12CCN(CCCC(=O)c1ccc(F)cc1)CC2` (configuration not stated), the EC50 was above 200 µM and the IC50 is above 200 µM.
In the case of `CCC1CC(C)=CCN1S(=O)(=O)c1ccc(C)cc1` (configuration not stated), the EC50 is above 18.6 µM and the IC50 was above 18.6 µM.
For the compound `O=c1[nH]c2ccccc2c(O)c1O`, the EC50 was above 200 µM and the 50% inhibitory concentration (IC50) was above 200 µM.
For the compound `Cc1ccccc1-n1c(=O)nc2n(-c3ccc(C(C)(C)C)cc3)c3ccccc3cc-2c1=O`, the EC50 was above 200 µM and the IC50 worked out at 14.1 µM.
As to `CC(C)(C)P1(=O)OCC(c2ccccc2)CO1` (configuration not stated), the EC50 was above 200 µM and the IC50 worked out at 151 µM.
For `O=c1[nH]c2cc(C(F)(F)F)ccc2nc1Cc1ccccc1` the same measures were above 200 µM and above 200 µM.
Turning to `C1CCc2nnnn2CC1`, the EC50 was > 200 µM and 120 µM; the IC50 is > 200 µM and 724 µM.
With `O=S(Cc1cnc2ccccc2c1)c1nc2ccccc2nc1-c1cccs1` (configuration not stated), the EC50 was above 6.76 µM and the IC50 is above 6.76 µM.
Regarding `CCOC(=O)c1ccc(C(=O)OCC)n1-c1cc2cc(c1)CSCc1cc(cc(-n3c(C(=O)OCC)ccc3C(=O)OCC)c1)CSC2`, the EC50 is above 200 µM and the IC50 is above 200 µM.
Regarding `CC1(C)C(=O)C2(C(=O)O)CCC1C2` (configuration not stated), the EC50 was above 200 µM and the IC50 is above 200 µM.
Consider `O=C1CC2c3ccccc3CCC2c2ccccc21` (configuration not stated), for which the EC50 was above 200 µM and the IC50 is 7.59 µM.
In the case of `CC(=O)OC[C@]1(C)C2C=C[C@@H]3C4(CC[C@]5(C)C(C(C)N(C)C)[C@H](O)CC35C)CC24CC[C@@H]1N(C)C` (some centres not stated), the outcome was inactive.
In the case of `CC(=O)O/C=C\OC1CCCC1`, the EC50 is above 200 µM and the IC50 is above 200 µM.
`CCOc1ccc(/C=C\c2ccnc3ccccc23)cc1OCC`: the EC50 was 0.0631 µM and the IC50 worked out at 38 µM.
`COC(=O)c1c([N+](=O)[O-])ncn1[C@H]1OC[C@@H](OC(C)=O)[C@@H](OC(C)=O)[C@@H]1OC(C)=O`: the EC50 is above 200 µM and the IC50 was above 200 µM.
For `S=C(/N=c1/sc(Nc2ccccc2)nc2sc3c(c12)CCCC3)Nc1ccccc1`, the EC50 was above 126 µM and the concentration for half-maximal inhibition (IC50) was above 126 µM.
On to `CC1CN(C(=O)OCC23COC4(C)CCC(C)(OC2)N34)CC(C)O1` (configuration not stated), for which the EC50 is above 200 µM and the IC50 is above 200 µM.
As to `Cc1cc(S(=O)(=O)n2ccnc2Oc2ccccc2)c(SSc2cc(Cl)c(C)cc2S(=O)(=O)n2ccnc2Oc2ccccc2)cc1Cl`, the EC50 was 129 µM and the IC50 was above 200 µM.
Regarding `CCN(CCO)CCNc1ccc(C)c2sc3ccccc3c(=O)c12`, the EC50 was above 200 µM and the IC50 is 2.88 µM.
`N#CC1(O)Cc2ccccc2C1`: the EC50 was above 200 µM and the 50% inhibitory concentration (IC50) was above 200 µM.
For the compound `c1ccc2c3nc4ccccc4c-3scc2c1`, the EC50 is above 56.2 µM and the 50% inhibitory concentration (IC50) was 6.46 µM.
With `N#Cc1c(O)c(C=O)c(=O)n2c1[nH]c1ccccc12`, the EC50 was above 200 µM and the IC50 came out at 170 µM.
For `CC1(C)C(c2ccccc2)=[N+]([O-])C(C)(C)N1O` the same measures were above 200 µM and 170 µM.
With `CNC(=O)N(C)CN(C)C(=O)NC`, the EC50 was above 479 µM and the IC50 is 229 µM.
Turning to `COc1cc(Oc2nc3ccc(C(F)(F)F)cc3nc2-c2ccccc2)cc(OC)c1OC`, the EC50 is above 93.3 µM and the IC50 was 57.5 µM.
As for `CC(C)(C)OC(=O)N1CCC(NC(=O)NC2CCN(C(=O)OC(C)(C)C)CC2)CC1`, the EC50 is above 200 µM and the IC50 is above 200 µM.
For the compound `NC(CS)C(=O)NCCNCCNc1ccc(NCCNCCNC(=O)C(N)CS)c2c1C(=O)c1c(O)ccc(O)c1C2=O` (configuration not stated), the EC50 was above 200 µM and the IC50 turned out to be 13.5 µM.
Turning to `CN1c2ccccc2NP1(=S)Oc1ccccc1` (configuration not stated), the EC50 was above 93.3 µM and the IC50 is above 93.3 µM.
In the case of `CCCCCCCCCCCCCCCC[N+](C)(C)Cc1ccccc1`, the EC50 is above 200 µM and the IC50 stood at 3.31 µM.
Regarding `O=C(Nc1ccc(C2=NCCN2)cc1)C1CCC(C(=O)Nc2ccc(C3=NCCN3)cc2)CC1` (configuration not stated), the EC50 is above 200 µM and the IC50 was determined as 11 µM.
With `Cc1cn(C2CC(F)C(CO)O2)c(=O)[nH]c1=O` (configuration not stated), the EC50 is 0.011 µM and the half-inhibitory concentration (IC50) was found to be 2 µM.
As for `O=C(c1ccco1)N(C(=S)N1CCN(c2ccccn2)CC1)C1CCCCC1`, the EC50 is above 46.8 µM and the half-maximal inhibitory concentration (IC50) came out at 35.5 µM.
For the compound `C=C(C)P(=O)(OC(C)CCl)OC(C)CCl` (configuration not stated), the EC50 is above 200 µM and the half-inhibitory concentration (IC50) is above 200 µM.
As to `CCOP(=O)(Cc1ccc(CP(=O)(OCC)OCC)n1C)OCC`, the result was inactive.
Turning to `N#CC1(c2nc3ccccc3o2)C(=O)C(=O)N(c2ccc(Cl)c(Cl)c2)C(=O)C1=O`, the EC50 was above 302 µM and the IC50 stood at 282 µM.
For `COC(=O)C1CCC(=O)N1C(c1ccc2c(c1)OCO2)c1ccc2c(c1)OCO2` (configuration not stated) the same measures were above 200 µM and 148 µM.
As for `CCOC(=O)c1cnccc1CC1(C#N)c2ccccc2C=CN1C(=O)c1ccccc1` (configuration not stated), the EC50 was above 200 µM and the IC50 came to 17.8 µM.
Take `O=C(O)C1CC2(CCC1c1ccccc1)SCCS2` (configuration not stated): the EC50 was above 447 µM and the IC50 is above 447 µM.
In the case of `O=C1c2ccccc2C(=O)N1CCS(=O)(=O)CCS(=O)(=O)CCN1C(=O)c2ccccc2C1=O`, the EC50 is above 200 µM and the IC50 was above 200 µM.
Turning to `OC1(C#CCN2CCCC2)c2ccccc2Sc2ccccc21.[C-]#[O+].[C-]#[O+].[C-]#[O+].[C-]#[O+].[C-]#[O+].[C-]#[O+].[Co].[Co]`, the EC50 was above 200 µM and the IC50 is 4.17 µM.
Take `CC(Sc1ccccc1)C(=O)N1CCCC1` (configuration not stated): the EC50 is above 100 µM and the IC50 was above 100 µM.
Take `O=C(Nc1ccc(Cl)cc1)Nc1ccc(Cl)c(Cl)c1`: the EC50 is above 200 µM and the IC50 came out at 2.95 µM.
As to `Nc1c(Cl)ncnc1N[C@@H]1C[C@H]1CO`, the EC50 was above 200 µM and the IC50 is above 200 µM.
In the case of `CCCCC(O)(c1ccccc1)C(O)(c1ccccc1)c1c(F)c(F)c(F)c(F)c1F` (configuration not stated), the EC50 was above 200 µM and the IC50 is 39.8 µM.
On to `NCC(=O)NC1(C(=O)O)CCCC1` (HELM PEPTIDE1{G.[O=C(O)C1(N[*:1])CCCC1]}$$$$V2.0), for which the EC50 was above 200 µM and the IC50 is above 200 µM.
As for `CCCC(O)(CCC)C1=NCCN1`, the EC50 was above 200 µM and the IC50 is above 200 µM.
`S=C1NC(/C=C/c2ccccc2)N2C(=S)NC(/C=C\c3ccccc3)N12` (configuration not stated): the result was inactive.
As for `COc1ccc2c(c1)C(c1ccc3ccccc3c1)OC2=O` (configuration not stated), the EC50 is above 46.8 µM and the IC50 was 7.41 µM.
On to `Cc1c2c(n(Cc3ccccn3)c1C)NN=C(C#N)S2(=O)=O`, for which the EC50 is above 200 µM and the IC50 was above 200 µM.
For the compound `CCC(=O)OC1CC2=CC(=O)CCC2(C)C2CCC3(C)C(OC(=O)CC)CCC3C12` (configuration not stated), the EC50 is above 200 µM and the IC50 was above 200 µM.
Regarding `CN(C)CC1CCC/C(=C\c2ccc(Cl)c(Cl)c2)C1=O` (configuration not stated), the result was inactive.
